The subject of one data set is Haemophilus Influenzae. Briefly: Vitro bacteriostasis experiment, two-fold agar dilution method. It counts as cell-based. Here is the method: (§1) Vitro bacteriostasis experiments of Compounds Ia, Ib, and Ic were performed using the two-fold agar dilution method.
In data set [1] the test system is Excrement Enterococcus. The description is as above. It counts as cell-based. The procedure: as §1
Another data set concerns Shigella. Described as above. It counts as cell-based. The procedure:
as §1

For a further data set, the system named is Type A Chain Coccus. The data set is described as above. The data set is classed as cell-based. Here is the method: as §1
Data set [2] deals with Moraxella Catarrhalis. The data set is described as above. The data set is classed as cell-based. Here is the method: as §1
For data set [3], the system named is Pneumonia Chain Coccus. The data set is described as above. The data set is classed as cell-based. The procedure:
as §1

The subject of another data set is Type B Chain Coccus. Described as above. The data set is classed as cell-based. Here is the method:
as §1

Data set [4] has as its system Excrement Enterococcus. In words: In-vivo antibacterial activity (protection of rats).
Data set [5] is described as follows: Stability in aqueous injection solutions at 37° C. It counts as physicochemical. An excerpt: (§2) Compared to Compound II, Compound I has better stability in aqueous solution (see Table 2) and in the solid state (See Table 3). Thus Compound I can be stored without freezing or special treatment.
A short description of the next data set: Solubility. The data set is classed as physicochemical. An excerpt:
Its chemical name is 7-(α-((N,N-diisopropylamidino)thio)acetylamino)-3-(((1,2,5,6-tetrahydro-2-methyl-5,6-dioxo-1,2,4-triazin-3-yl)thio)methyl) cephalosporanic acid mono sodium salt (Compound Ia).

The nature of data set [6]: pH value of aqueous solution. The conditions noted are these: for pH: concentration 0.1 g/mL. The data set is classed as physicochemical. Here is the method:
The pH value of its saturated aqueous solution is 3.2.
At 5° C., sodium carbonate (0.1 g) was dissolved in deionized water (5 mL) in a three-neck flask. Compound II (1 g) was added to the flask with agitation (350 rpm) and the reaction was carried out for 45 minutes. The reaction mixture was discolored with activated carbon and then filtered. The filtration liquid was dropwise added to 80 mL of acetone to precipitate. The precipitation was monitored by an on-line particle analyzing instrument. The mixture was filtered and the solid was washed twice with acetone. Drying under vacuum at 40° C. for 24 hours gave 0.75 g of Compound Ia with a purity of 98.35% (HPLC) and pH 7.3 (concentration 0.1 g/mL).

For data set [7], the system named is Pneumonia Chain Coccus. In words: In-vivo antibacterial activity (protection of rats).
Data set [8] can be described thus: Acute toxicity tests on rats. The data set is classed as in vivo. The conditions noted are these: intravenous injection.
For data set [9], the system named is Moraxella Catarrhalis. In words: In-vivo antibacterial activity (protection of rats).
Data set [10] in a line: Stability in the solid state, storage at various temperatures. It counts as physicochemical.
From the text: as §2

Data set [11] can be described thus: Muscle stimulation test on rabbits. More on the design: species or system New Zealand rabbits. As to conditions: rabbit, in vivo. An excerpt: The inventors have conducted the muscle stimulation test of Compounds Ia and II on rabbits. The test is as follows. Eight New Zealand rabbits were divided into three groups. Two groups, containing three rabbits per group, were administrated with Compound Ia and Compound II, respectively. The third group, containing two rabbits, was used as a negative control group. The rabbits were intramuscularly injected with high concentrations of the compounds into the left quadriceps and with low concentration into the right quadriceps. The negative control group was injected with an equal concentration of sodium chloride into the quadriceps of both sides. Each quadriceps was administrated with 1.0 mL once a day for three consecutive days. One or two rabbits from each group were anatomized after 48 hours of the injection. The remaining rabbits were anatomized after the end of the two-week recovery period.

Data set [12] is classed as in vivo. As to conditions: for t1/2β: single intravenous administration (Ia 50 mg/kg·bw). Here is the method: The inventors conducted preliminary pharmacokinetic study of Compound Ia on Beagle dogs. The Beagle dogs were allowed to drink water freely but not to eat food for 16 hours before and 4 hours after the intravenous injection of 50 mg/kg·bw of the compound. Intravenous blood sampling took place at 0, 0.083, 0.17, 0.25, 0.5, 1, 1.5, 2, 3, 4, 6, 9, 12 hours, respectively, after the injection, each blood sample being 3 mL. Thereafter the dogs were given the drugs every other week and blood samples were taken according to the above manner. The blood samples were added to the centrifuge tubes containing heparin and thoroughly mixed by centrifuging at 4000 rpm for 10 minutes. The blood plasma was separated and an abstraction agent (methanol/ethyl acetate 3:2 V/V) was added to and mixed with it by centrifuging at 10000 rpm for 10 minutes. The top, clear liquid, 20 μL, was taken and analyzed by HPLC.

Setting [13] is: healthy Beagle dogs, single intravenous administration 50 mg/kg·bw.

These results are taken from patent US20110118462A1, “N-HETEROCYCLIC SUBSTITUENT-CONTAINING ANTIBIOTIC, PREPARATION AND USE THEREOF” (priority 2009, published 2011).

`CC(C)N(C(=N)SCC(=O)NC1C(=O)N2C(C(=O)[O-])=C(CSc3nc(=O)c(=O)[nH]n3C)CSC12)C(C)C.[K+]` (stereo not drawn) [Compound Ic, 7-(α-((N,N-diisopropylamidino)thio)acetylamino)-3-(((1,2,5,6-tetrahydro-2-methyl-5,6-dioxo-1,2,4-triazin-3-yl)thio)methyl) cephalosporanic acid monopotassium salt]: the MIC90 turned out to be 0.5 µg/mL in the data set on Haemophilus Influenzae; 8 µg/mL with Excrement Enterococcus [1]; 4 µg/mL with Shigella; 0.1 µg/mL with Type A Chain Coccus; 0.5 µg/mL in the data set on Moraxella Catarrhalis [2]; 0.5 µg/mL against Pneumonia Chain Coccus [3]. In addition, the MIC90 in the data set with Type B Chain Coccus is 0.0156 µg/mL.
As for `CC(C)N(C(=N)SCC(=O)NC1C(=O)N2C(C(=O)[O-])=C(CSc3nc(=O)c(=O)[nH]n3C)CSC12)C(C)C.[Na+]` (stereo not drawn) [Compound Ia, 7-(α-((N,N-diisopropylamidino)thio)acetylamino)-3-(((1,2,5,6-tetrahydro-2-methyl-5,6-dioxo-1,2,4-triazin-3-yl)thio)methyl) cephalosporanic acid mono sodium salt], the “protection for rats against Excrement Enterococcus” value with Excrement Enterococcus [4] was “excellent protection”. Also, the “content in aqueous injection solution” value in data set [5] (0 hr) was 98.60%; in data set [5] (0.2 hr), 98.60%; in [5] (1 hr) it was 97.98%; in data set [5] (2 hr), 97.79%; in [5] (3 hr), 97.24%; in data set [5] (4 hr), 97.13%. Moreover, the solubility in acetone result in the data set “Solubility” is given as “not readily soluble”. Further, in the data set “Solubility”, the “solubility in anhydrous ethanol” value is given as “not readily soluble”. For the same compound, in the data set “Solubility”, the solubility in methanol result is “readily soluble”. Also, the solubility in water result in the data set “Solubility” is recorded as “readily soluble”. In [6], this compound had a pH of 7.3. In data set [6] (concentration not given), this compound returned a pH value of 7.3. The “protection for rats against Pneumonia Chain Coccus” value with Pneumonia Chain Coccus [7] is reported as “excellent protection”. In data set [8], this compound displayed a 50% lethal dose (LD50) of 1747.6 mg/kg. The “protection for rats against Moraxella Catarrhalis” value in the data set on Moraxella Catarrhalis [9] is given as “excellent protection”. Moreover, the “content after 72 hours in storage” value is 96.9% in data set [10] (10° C.), 96.6% in data set [10] (40° C.), 96.4% in data set [10] (60° C.) and 97.0% in data set [10] (−5° C.). For the same compound, the muscle irritation observed entry in [11] was “slight irritation”. Moreover, the MIC90 against Haemophilus Influenzae is 0.5 µg/mL; against Excrement Enterococcus [1], 8 µg/mL; against Shigella, 4 µg/mL; against Type A Chain Coccus, 0.5 µg/mL; with Moraxella Catarrhalis [2] it was 1 µg/mL; against Pneumonia Chain Coccus [3], 0.125 µg/mL. Moreover, in the data set with Type B Chain Coccus, the MIC90 is 0.0625 µg/mL. Moreover, the AUC in data set [12] (setting [13]) was found to be 108.29 ± 18.17 µg·h/mL. Also, the CIB in [12] (setting [13]) came to 783 ± 1.5 mL/min/kg. Also, in [12] (setting [13]), the V1 worked out at 0.25 ± 0.07 L/kg. In [12] (setting [13]), this compound had a VB of 1.61 ± 0.30 L/kg. This compound came in with a t1/2α in data set [12] (setting [13]) of 37.8 ± 7.2 min. Besides, in [12] (healthy Beagle dogs, single intravenous administration 50 mg/kg·bw, plasma), the Cmax worked out at 116.35 ± 12.06 µg/mL. The “drug concentration after 12 hours of the administration” value in data set [12] (healthy Beagle dogs, single intravenous administration 50 mg/kg·bw, plasma, 12 hours) was determined as 0.39 ± 0.09 µg/mL. In [12] (healthy Beagle dogs), the t1/2β was 155 ± 2.4 min.
Turning to `CC(=O)OCC1=C(C(=O)O)N2C(=O)[C@@H](NC(=O)CSC(=NC(C)C)NC(C)C)[C@H]2SC1` [cefathiamidine, reference compound], the LD50 in data set [8] stood at 824.2 mg/kg. Also, in data set [12] (Beagle dogs, preliminary pharmacokinetic study), the “biological half-life in blood” value is on record as 0.65 hours. For the same compound, in data set [12] (healthy Beagle dogs), the t1/2β came to 39 ± 1.8 min.
For `CC(C)N=C(NC(C)C)SCC(=O)NC1C(=O)N2C(C(=O)[O-])=C(CSc3nc(=O)c(=O)[nH]n3C)CSC12.CC(C)N=C(NC(C)C)SCC(=O)NC1C(=O)N2C(C(=O)[O-])=C(CSc3nc(=O)c(=O)[nH]n3C)CSC12.[Na+].[Na+]` (stereo not drawn) [Compound Ib, disodium 7-(α-((N,N′-diisopropylamidino)thio)acetylamino)-3-(((1,2,5,6-tetrahydro-2-methyl-5,6-dioxo-1,2,4-triazin-3-yl)thio)methyl) cephalosporanate], the “content in aqueous injection solution” value in data set [5] (0 hr) came out at 98.80%; in [5] (0.2 hr), 98.54%; in [5] (1 hr), 97.14%; in data set [5] (2 hr) it was 96.66%; in [5] (3 hr), 95.21%; in data set [5] (4 hr) it was 94.30%. This compound also displayed a pH in data set [6] of 10.02. Further, the MIC90 against Haemophilus Influenzae worked out at 0.5 µg/mL; against Excrement Enterococcus [1], 4 µg/mL; against Shigella it was 4 µg/mL; in the data set on Type A Chain Coccus it was 0.1 µg/mL; against Moraxella Catarrhalis [2] it was 0.5 µg/mL; against Pneumonia Chain Coccus [3], 0.5 µg/mL. Also, the MIC90 against Type B Chain Coccus turned out to be 0.0125 µg/mL.
